Assay results taken from US20250042896A1, “POLYCYCLIC COMPOUND AS CBL-B INHIBITOR” (HAINAN SIMCERE ZAIMING PHARMACEUTICAL CO., LTD., priority 2021, published 2025).

Legend:
[1] = tested on: Jurkat T cells; experiment: Jurkat T activation assay (IL-2 release, ELISA); assay type: cell-based; conditions: IL-2 release of Jurkat T cells, Anti-Human CD3/CD28 stimulation, 48 hours, IL-2 ELISA
Protocol: Experiment purpose: Testing of effect of compounds on IL-2 release and activation of Jurkat T cells
Experimental method: 96-well cell plates (Corning) were coated with 2 μg/mL Anti-Human CD3 Clone OKT3 (BD) at 37° C. for 4 hours. 3-fold serial dilutions of compounds (final concentration 10 μM-4.6 nM, starting concentration 10 μM, 3-fold dilution, 8 points, 8th point being 4.6 nM) and 220 μL of 1.11×10^6/mL Jurkat T cells (ATCC) were incubated for 1 hour, 5 μL of 45 μg/mL Anti-Human CD28 Clone CD28.2 (BD) was added, mixed evenly, 100 μL was transferred to the aforementioned CD3-coated cell plate, cultured in a cell incubator at 37° C. for 48 hours, and the supernatant was collected and the IL-2 release was detected using an IL-2 ELISA kit (BD). EC50 was analyzed using Prism.

[2] = molecular target: Cbl-b protein and UbcH5B-Ub (Homo sapiens (Human), UniProt Q13191); experiment: Cbl-b activity assay (HTRF, interaction between Cbl-b protein and UbcH5B-Ub); assay type: biochemical; conditions: inhibition of interaction between Biotin-Cbl-b protein and Eu-Ubquitin-UbcH5B, HTRF signal 665 nm/615 nm
Protocol: Experiment purpose: Testing of inhibitory activity of compounds on the interaction between Cbl-b protein and UbcH5B-Ub
Experimental method: Eu-Ubquitin-UbcH5B was prepared by incubating Eu-Ubquitin (Cisbio) with UbcH5B (ENZO), E1 (ENZO) at 37° C. for 4 hours. Eu-Ubquitin-UbcH5B was aliquoted and stored at −80° C. Cbl-b activity assay was performed in 384-well plates (Perkin Elmer). 100 nL of 3-fold serial dilutions of compounds (final concentration 10 μM-0.5 nM, starting concentration 10 μM, 3-fold dilution, 10 points, 10th point being 0.5 nM) and 5 μL of 50 nM Biotin-Cbl-b protein (Sigma) were incubated for 1 hour at room temperature, and the reaction buffer was 50 mM HEPES pH 7.0 (Gibco), 100 mM NaCl (Sigma), 0.01% Triton X-100 (Sigma), 0.01% BSA (Sigma) and 1 mM DTT (Invitrogen). 5 μL of Src mixed solution (40 nM Src (R&D), 2 mM ATP (Sigma), 10 mM MgCl2 (Sigma)) was added to the reaction plate and incubated at room temperature for 3 hours. 10 μL of detection solution (12.5 nM Strepdividin-XL665 (Cisbio), 500 nM Eu-Ubquitin-UbcH5B, […] (Invitrogen), 0.004% BSA (Sigma)) was added to the reaction plate, incubated overnight at room temperature, and the HTRF signal (665 nm/615 nm) was read on Envision (Perkin Elmer). IC50 was calculated using IDBS XLfit.

Sequence of Cbl-b protein and UbcH5B-Ub (Q13191 whole entry, species assumed): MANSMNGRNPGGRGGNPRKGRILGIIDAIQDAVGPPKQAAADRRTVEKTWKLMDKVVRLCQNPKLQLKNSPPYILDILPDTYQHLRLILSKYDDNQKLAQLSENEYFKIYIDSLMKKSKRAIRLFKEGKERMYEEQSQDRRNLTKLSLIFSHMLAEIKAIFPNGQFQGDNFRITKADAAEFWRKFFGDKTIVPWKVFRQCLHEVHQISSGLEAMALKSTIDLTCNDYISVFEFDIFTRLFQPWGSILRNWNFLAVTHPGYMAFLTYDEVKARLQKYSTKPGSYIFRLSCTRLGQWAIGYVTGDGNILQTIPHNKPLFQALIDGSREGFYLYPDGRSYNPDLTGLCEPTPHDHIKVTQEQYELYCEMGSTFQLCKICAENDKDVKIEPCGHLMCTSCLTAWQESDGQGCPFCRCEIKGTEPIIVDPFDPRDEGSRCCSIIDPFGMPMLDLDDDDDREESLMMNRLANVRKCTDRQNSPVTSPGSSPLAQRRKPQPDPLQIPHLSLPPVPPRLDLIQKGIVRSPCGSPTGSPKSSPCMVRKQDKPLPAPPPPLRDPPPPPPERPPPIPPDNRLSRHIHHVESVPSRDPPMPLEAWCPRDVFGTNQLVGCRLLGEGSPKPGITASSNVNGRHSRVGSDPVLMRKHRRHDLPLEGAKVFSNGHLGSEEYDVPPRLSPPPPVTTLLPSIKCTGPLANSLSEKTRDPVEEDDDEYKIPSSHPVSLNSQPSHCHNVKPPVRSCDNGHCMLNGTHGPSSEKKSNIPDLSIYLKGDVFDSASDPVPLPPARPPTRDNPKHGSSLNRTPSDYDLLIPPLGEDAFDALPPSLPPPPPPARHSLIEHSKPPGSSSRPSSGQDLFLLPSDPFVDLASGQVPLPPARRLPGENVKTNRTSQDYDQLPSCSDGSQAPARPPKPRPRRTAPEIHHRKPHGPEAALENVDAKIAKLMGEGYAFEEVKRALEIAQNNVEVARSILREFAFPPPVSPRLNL

SMILES | EC50 [1] [nM] | IC50 [2] [nM]
CC1CC(c2cccc(-c3cnc4ccc(CN5CCC[C@H](C)C5)cn4c3=O)c2)(c2nncn2C)C1 (stereo partly drawn) [Compound 1, 3-[3-[3-methyl-1-(4-methyl-4H-1,2,4-triazol-3-yl)cyclobutyl]phenyl]-7-[[(3S)-3-methyl-1-piperidyl]methyl]pyrido[1,2-a]pyrimidin-4-one] | – | 76.6
CC1CC(c2cccc(-c3cnc4c(C(F)(F)F)cc(CN5CCC[C@H](C)C5)cn4c3=O)c2)(c2nncn2C)C1 (stereo partly drawn) [Compound 2, 3-[3-[3-methyl-1-(4-methyl-4H-1,2,4-triazol-3-yl)cyclobutyl]phenyl]-7-[[(3S)-3-methyl-1-piperidyl]methyl]-9-(trifluoromethyl)pyrido[1,2-a]pyrimidin-4-one] | 634 | 40.3
C[C@H]1CCCN(Cc2cc(C(F)(F)F)c3ncc(-c4cccc([C@]5(c6nncn6C)C[C@@H](C)C5)c4)c(=O)n3c2)C1 [Compound 2-P1] | 426 | 27.1
COc1cc(CN2CCC[C@H](C)C2)cn2c(=O)c(-c3cccc(C4(c5nncn5C)CC(C)C4)c3)cnc12 (stereo partly shown) [Compound 3] | – | 296
CC1CC(c2cccc(-c3cnc4c(C(F)(F)F)cc(CN5CCO[C@H](C)C5)cn4c3=O)c2)(c2nncn2C)C1 (stereo partly shown) [Compound 4] | – | 268
C[C@H]1CCCN(Cc2cc(C(F)(F)F)c3ncc(-c4cccc(C5(Cc6nncn6C)COC5)c4)c(=O)n3c2)C1 [Compound 5] | – | 450
CC1CC(c2cccc(-c3cnc4c(F)cc(CN5CCC[C@H](C)C5)cn4c3=O)c2)(c2nncn2C)C1 (stereo partly shown) [Compound 9] | – | 130
CC1CC(c2cccc(-c3cnc4c(Cl)cc(CN5CCC[C@H](C)C5)cn4c3=O)c2)(c2nncn2C)C1 (stereo partly shown) [Compound 10] | – | 42.9
Cc1cc(CN2CCC[C@H](C)C2)cn2c(=O)c(-c3cccc(C4(c5nncn5C)CC(C)C4)c3)cnc12 (stereo partly shown) [Compound 11] | – | 31.2
CCc1cc(CN2CCC[C@H](C)C2)cn2c(=O)c(-c3cccc(C4(c5nncn5C)CC(C)C4)c3)cnc12 (stereo partly shown) [Compound 12] | – | 63.9
CC1CC(c2cccc(-c3cnc4c(C5CC5)cc(CN5CCC[C@H](C)C5)cn4c3=O)c2)(c2nncn2C)C1 (stereo partly shown) [Compound 13] | – | 31.9
CC1CC(c2cccc(-c3cnc4c(Br)cc(CN5CCC[C@H](C)C5)cn4c3=O)c2)(c2nncn2C)C1 (stereo partly shown) [Compound 14] | – | 29.3
CC1CC(c2cccc(-c3cnc4c(C(F)(F)F)cc(CN5CC6CCC5C6)cn4c3=O)c2)(c2nncn2C)C1 (stereo not shown) [Compound 17] | – | 167
Cc1cc(CN2CCC[C@H](C)C2)cc2c(=O)c(-c3cccc(C4(c5nncn5C)CC(C)C4)c3)coc12 (stereo partly drawn) [Compound 58, (S)-8-methyl-3-(3-(3-methyl-1-(4-methyl-4H-1,2,4-triazol-3-yl)cyclobutyl)phenyl)-6-((3-methylpiperidin-1-yl)methyl)-4H-chromen-4-one] | 112 | 9.7
CC1CC(c2cccc(-c3cnc4sc(CN5CCC[C@H](C)C5)cn4c3=O)c2)(c2nncn2C)C1 (stereo partly drawn) [Compound 59, (S)-6-(3-(3-methyl-1-(4-methyl-4H-1,2,4-triazol-3-yl)cyclobutyl)phenyl)-2-((3-methylpiperidin-1-yl)methyl)-5H-thiazolo[3,2-a]pyrimidin-5-one] | – | 43.1
CC1CC(c2cccc(-c3cnc4c(C(F)(F)F)cc(CN5CC6CC(C)(C6)C5)cn4c3=O)c2)(c2nncn2C)C1 (stereo not shown) [Compound 62] | 525 | 23.6

Continued, values first:

EC50 [1] [nM] | IC50 [2] [nM] | SMILES
250 | 10.1 | Cc1c(F)c(CN2CCC[C@H](C)C2)cc2c(=O)c(-c3cccc(C4(c5nncn5C)CC(C)C4)c3)coc12 (stereo in doubt) [Compound 121, 7-fluoro-8-methyl-3-(3-(cis-3-methyl-1-(4-methyl-4H-1,2,4-triazol-3-yl)cyclobutyl)phenyl)-6-(((s)-3-methylpiperidin-1-yl)methyl)-4H-chromen-4-one]
– | 41.6 | C[C@H]1CCCN(Cc2cc(C(F)(F)F)c3ncc(-c4cccc(C(c5nncn5C)C5CC5)c4)c(=O)n3c2)C1 (stereo partly drawn) [Compound 63, 3-(3-(cyclopropyl(4-methyl-4H-1,2,4-triazol-3-yl)methyl)phenyl)-7-(((S)-3-methylpiperidin-1-yl)methyl)-9-trifluoromethyl-4H-pyrido[1,2-a]pyrimidin-4-one]
– | 38.4 | Cc1cc(CN2CCC[C@H](C)C2)cc2c(=O)c(-c3cccc(C(c4nncn4C)C4CC4)c3)coc12 (stereo partly drawn) [Compound 64, 3-(3-(cyclopropyl(4-methyl-4H-1,2,4-triazol-3-yl)methyl)phenyl)-8-methyl-6-(((S)-3-methylpiperidin-1-yl)methyl)-4H-chromen-4-one]
265 | 17 | Cc1cc(CN2CCC[C@H](C)C2)cc2c(=O)c(-c3cncc(C4(c5nncn5C)CC(C)C4)c3)coc12 (stereo partly drawn) [Compound 65, (S)-8-methyl-3-(5-(3-methyl-1-(4-methyl-4H-1,2,4-triazol-3-yl)cyclobutyl)pyridin-3-yl)-6-((3-methylpiperidin-1-yl)methyl)-4H-chromen-4-one]
– | 88.9 | Cc1cc(CN2CCC[C@H](C)C2)cc2c(=O)c(-c3cc(C(F)(F)F)cc(C4(c5nncn5C)CC(C)C4)c3)coc12 (stereo partly drawn) [Compound 66, (S)-8-methyl-3-(3-(3-methyl-1-(4-methyl-4H-1,2,4-triazol-3-yl)cyclobutyl)-5-trifluoromethylphenyl)-6-((3-methylpiperidin-1-yl)methyl)-4H-chromen-4-one]
– | 96.4 | Cc1cc(CN2CCC[C@H](C)C2)cc2c(=O)c(-c3cccc(C(C)(C)c4nncn4C)c3)coc12 [Compound 67, (S)-8-methyl-3-(3-(2-(4-methyl-4H-1,2,4-triazol-3-yl)propan-2-yl)phenyl)-6-((3-methylpiperidin-1-yl)methyl)-4H-chromen-4-one]
– | 203 | Cc1cc(CN2CCC[C@H](C)C2)cc2c(=O)c(-c3cccc(C4(c5nncn5C)CCO4)c3)coc12 (stereo partly drawn) [Compound 71, 8-methyl-3-(3-(2-(4-methyl-4H-1,2,4-triazol-3-yl)oxetan-2-yl)phenyl)-6-(((S)-3-methylpiperidin-1-yl)methyl)-4H-chromen-4-one]
– | 64.9 | Cc1cc(CN2CCC[C@H](C)C2)cc2c(=O)c(-c3cccc(C4(c5nncn5C)CC(F)(F)C4)c3)coc12 [Compound 73, (S)-3-(3-(3,3-difluoro-1-(4-methyl-4H-1,2,4-triazol-3-yl)cyclobutyl)phenyl)-8-methyl-6-((3-methylpiperidin-1-yl)methyl)-4H-chromen-4-one]
– | 19.1 | CC1CC(c2cccc(-c3coc4c(C5CC5)cc(CN5CCC[C@H](C)C5)cc4c3=O)c2)(c2nncn2C)C1 (stereo partly drawn) [Compound 74, (S)-8-cyclopropyl-3-(3-(3-methyl-1-(4-methyl-4H-1,2,4-triazol-3-yl)cyclobutyl)phenyl)-6-((3-methylpiperidin-1-yl)methyl)-4H-chromen-4-one]
– | 7.4 | CC1CC(c2cncc(-c3coc4c(C5CC5)cc(CN5CCC[C@H](C)C5)cc4c3=O)c2)(c2nncn2C)C1 (stereo partly drawn) [Compound 75, (S)-8-cyclopropyl-3-(5-(3-methyl-1-(4-methyl-4H-1,2,4-triazol-3-yl)cyclobutyl)pyridin-3-yl)-6-((3-methylpiperidin-1-yl)methyl)-4H-chromen-4-one]
– | 32.7 | Cc1cc(CN2CCN(C)C[C@@H]2C(C)C)cc2c(=O)c(-c3cccc(C4(c5nncn5C)CC(C)C4)c3)coc12 (stereo partly shown) [Compound 88]
– | 41.6 | CC1CC(c2cccc(-c3cnc4c(C(F)(F)F)cc(CN5CCN(C)C[C@@H]5C(C)C)cn4c3=O)c2)(c2nncn2C)C1 (stereo partly shown) [Compound 89]
– | 212 | Cc1cc(CN2CCC[C@H](C)C2)cc2c(=O)c(-c3cccc([C@](F)(c4nncn4C)C4CC4)c3)coc12 [Compound 120-P1]
– | 7.8 | Cc1cc(CN2CCC[C@H](C)C2)cc2c(=O)c(-c3cccc([C@@](F)(c4nncn4C)C4CC4)c3)coc12 [Compound 120-P2, 3-(3-((R)-cyclopropylfluoro(4-methyl-4H-1,2,4-triazol-3-yl)methyl)phenyl)-8-methyl-6-(((S)-3-methylpiperidin-1-yl)methyl)-4H-chromen-4-one]
– | 17.8 | Cc1cc(CN2CCC(F)(F)[C@H](C)C2)cc2c(=O)c(-c3cccc(C(F)(c4nncn4C)C4CC4)c3)coc12 (stereo partly drawn) [Compound 129, 3-(3-(cyclopropylfluoro(4-methyl-4H-1,2,4-triazol-3-yl)methyl)phenyl)-6-(((R)-4,4-difluoro-3-methylpiperidin-1-yl)methyl)-8-methyl-4H-chromen-4-one]
